In US20230263822A1, “MODULATION OF FACTOR 11 EXPRESSION” (Ionis Pharmaceuticals, Inc., priority 2008, published 2023):
Strand notation (5' to 3'): a small letter for the sugar, then the base; units joined by * are phosphorothioate-linked, units joined directly phosphodiester-linked; [ ] holds rarer units or linkages, { } end groups; capitals alone tell only the bases. e = 2'-O-(2-methoxyethyl) (MOE); [5mC] = 5-methylcytosine; d = 2'-deoxy (DNA)

How the values were obtained:
human Factor 11 mRNA [1] = assay: Dose-dependent antisense inhibition of human Factor 11 in HepG2 cells, lipofectin 9.375-150 nM (Example 2); assay type: cell-based; conditions: ~16 h
Description: Cells were plated at a density of 10,000 cells per well and transfected using lipofectin reagent with 9.375 nM, 18.75 nM, 37.5 nM, 75 nM, and 150 nM concentrations of antisense oligonucleotide, as specified in Table 3. After a treatment period of approximately 16 hours, RNA was isolated from the cells and Factor 11 mRNA levels were measured by quantitative real-time PCR. Human Factor 11 primer probe set RTS 2966 (forward sequence: […], incorporated herein as SEQ ID NO: 3; reverse sequence: […], incorporated herein as SEQ ID NO: 4; probe sequence: TTGTCTACTGAAGCACACCCAAACAGGGAX, incorporated herein as SEQ ID NO: 5) was used to measure mRNA levels. Factor 11 mRNA levels were adjusted according to total RNA content, as measured by RIBOGREEN. Results are presented as percent inhibition of Factor 11, relative to untreated control cells.

human Factor 11 mRNA [2] = assay: Dose-dependent inhibition of human Factor 11 in HepG2 cells, electroporation 375-12,000 nM (Example 32); assay type: cell-based; conditions: for Percent inhibition of Factor 11 mRNA at 375 nM / Percent inhibition of Factor 11 mRNA at 750 nM / IC50: electroporation; for Percent inhibition of Factor 11 mRNA at 375 nM / Percent inhibition of Factor 11 mRNA at 750 nM / Percent inhibition of Factor 11 mRNA at 1,500 nM / Percent inhibition of Factor 11 mRNA at 3,000 nM / Percent inhibition of Factor 11 mRNA at 6,000 nM / Percent inhibition of Factor 11 mRNA at 12,000 nM: approx. 16 hours, relative to untreated control cells; for Percent inhibition of Factor 11 mRNA at 1,500 nM: electroporation, 1,500 nM; for Percent inhibition of Factor 11 mRNA at 3,000 nM: electroporation, 3,000 nM; for Percent inhibition of Factor 11 mRNA at 6,000 nM: electroporation, 6,000 nM; for Percent inhibition of Factor 11 mRNA at 12,000 nM: electroporation, 12,000 nM; for IC50: Factor 11 mRNA expression
Description: These gapmers were tested at various doses in HepG2 cells. Cells were plated at a density of 20,000 cells per well and transfected using electroporation with 375 nM, 750 nM, 1,500 nM, 3,000 nM, 6,000 nM and 12,000 nM concentrations of antisense oligonucleotide, as specified in Table 47. After a treatment period of approximately 16 hours, RNA was isolated from the cells and Factor 11 mRNA levels were measured by quantitative real-time PCR. Human Factor 11 primer probe set RTS 2966 was used to measure mRNA levels. Factor 11 mRNA levels were adjusted according to total RNA content, as measured by RIBOGREEN. Results are presented as percent inhibition of Factor 11, relative to untreated control cells.
ISIS 416850, ISIS 416858, ISIS 445522, and ISIS 445531 (see Table 45 above) were re-tested in vitro along with the microwalk gapmers under the same conditions described above.
The first two listed gapmers in Table 47 are the original gapmers (ISIS 416850 and ISIS 416858) from which the remaining gapmers were designed via microwalk and are designated by an asterisk.

[3] = Tolerability in CD1 mice: liver function, ALT, AST, bilirubin, albumin (Example 33); conditions: plasma, 50 mg/kg s.c. twice a week
Description: (§1) A control group of five mice was injected subcutaneously with PBS for 2 weeks. All experimental groups (i.e. ASO treated mice at 2, 4, 6 weeks) were compared to the control group (i.e. PBS, 2 weeks).
To evaluate the effect of ISIS oligonucleotides on hepatic function, plasma concentrations of transaminases were measured using an automated clinical chemistry analyzer (Hitachi Olympus AU400e, Melville, N.Y.). […] Plasma levels of bilirubin and albumin were also measured using the same clinical chemistry analyzer and expressed in mg/dL.

[4] = Body and organ weights of cynomolgus monkeys (Example 45); assay type: in vivo; conditions: for body weights: escalating dose regimen;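 for Organ weights, Kidney: absolute organ weight in grams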;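 for Organ weights, Liver: absolute organ weight in grams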;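 for Organ weights, Spleen: absolute organ weight in grams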
Description: Groups, each consisting of two male and three female monkeys, were injected subcutaneously with ISIS 416838, ISIS 416850, ISIS 416858, ISIS 416864, or ISIS 417002 in escalating doses. Antisense oligonucleotide was administered to the monkeys at 5 mg/kg three times per a week for week 1; 5 mg/kg twice per week for weeks 2 and 3; 10 mg/kg three times per week for week 4; 10 mg/kg twice per week for weeks 5 and 6; 25 mg/kg three times per week for week 7; and 25 mg/kg twice per week for weeks 8, 9, 10, 11, and 12. One control group, consisting of two male and three female monkeys, was injected subcutaneously with PBS according to the same dosing regimen. An additional experimental group, consisting of two male and three female monkeys, was injected subcutaneously with ISIS 416850 in a chronic, lower dose regimen. Antisense oligonucleotide was administered to the monkeys at 5 mg/kg three times per week for week 1; 5 mg/kg twice per week for week 2 and 3; 10 mg/kg three times per week for week 4; and 10 mg/kg twice per week for weeks 5 to 12. Body weights were measured weekly. Blood samples were collected 14 days and 5 days before the start of treatment and subsequently once per week for Factor 11 protein activity analysis in plasma, fibrinogen measurement, PT and aPTT measurements, bleeding times, and measurement of various hematologic factors. On day 85, the monkeys were euthanized by exsanguination while under deep anesthesia, and organs harvested for further analysis.
Body weights were taken once weekly throughout the dosing regimen. […] Organ weights were taken after the animals were euthanized and livers, kidneys and spleens were harvested and weighed. […] The ISIS oligonucleotide, ISIS 416850, given with the chronic dose regimen is distinguished from the other oligonucleotides with an asterisk (*).

[5] = Tolerability in CD1 mice: kidney function, BUN, creatinine (Example 33); conditions: plasma, 50 mg/kg s.c. twice a week
Description: as §1
To evaluate the effect of ISIS oligonucleotides on kidney function, plasma concentrations of blood urea nitrogen (BUN) and creatinine were measured using an automated clinical chemistry analyzer (Hitachi Olympus AU400e, Melville, N.Y.).

[6] = Tolerability in Sprague-Dawley rats: liver function (Example 35); conditions: plasma, 50 mg/kg s.c. twice per week for 6 weeks
[7] = after the animals were euthanized

Substance: 412206 (antisense e[5mC]*e[5mC]*eG*eT*eG*d[5mC]*dA*dT*d[5mC]*dT*dT*dT*d[5mC]*dT*dT*eG*eG*e[5mC]*eA*eT) [compound 412206]
- percent inhibition of Factor 11 at 9.375 nM (human Factor 11 mRNA [1]): 28%
- percent inhibition of Factor 11 at 18.75 nM (human Factor 11 mRNA [1]): 44%
- percent inhibition of Factor 11 at 37.5 nM (human Factor 11 mRNA [1]): 68%
- percent inhibition of Factor 11 at 75 nM (human Factor 11 mRNA [1]): 80%
- percent inhibition of Factor 11 at 150 nM (human Factor 11 mRNA [1]): 89%
- IC50 (human Factor 11 mRNA [1]): 22 nM

Substance: 412223 (antisense ACAGTTTCTGGCAGGCCTCG; 5-10-5 MOE gapmer, further chemistry not given here) [compound 412223]
- percent inhibition of Factor 11 at 9.375 nM (human Factor 11 mRNA [1]): 33%
- percent inhibition of Factor 11 at 18.75 nM (human Factor 11 mRNA [1]): 48%
- percent inhibition of Factor 11 at 37.5 nM (human Factor 11 mRNA [1]): 62%
- percent inhibition of Factor 11 at 75 nM (human Factor 11 mRNA [1]): 76%
- percent inhibition of Factor 11 at 150 nM (human Factor 11 mRNA [1]): 81%
- IC50 (human Factor 11 mRNA [1]): 21 nM

Substance: 412224 (antisense GCATTGGTGCACAGTTTCTG; 5-10-5 MOE gapmer, further chemistry not given here) [compound 412224]
- percent inhibition of Factor 11 at 9.375 nM (human Factor 11 mRNA [1]): 24%
- percent inhibition of Factor 11 at 18.75 nM (human Factor 11 mRNA [1]): 45%
- percent inhibition of Factor 11 at 37.5 nM (human Factor 11 mRNA [1]): 57%
- percent inhibition of Factor 11 at 75 nM (human Factor 11 mRNA [1]): 70%
- percent inhibition of Factor 11 at 150 nM (human Factor 11 mRNA [1]): 81%
- IC50 (human Factor 11 mRNA [1]): 28 nM

Substance: 412225 (antisense GCAGCGGACGGCATTGGTGC; 5-10-5 MOE gapmer, further chemistry not given here) [compound 412225]
- percent inhibition of Factor 11 at 9.375 nM (human Factor 11 mRNA [1]): 32%
- percent inhibition of Factor 11 at 18.75 nM (human Factor 11 mRNA [1]): 42%
- percent inhibition of Factor 11 at 37.5 nM (human Factor 11 mRNA [1]): 65%
- percent inhibition of Factor 11 at 75 nM (human Factor 11 mRNA [1]): 78%
- percent inhibition of Factor 11 at 150 nM (human Factor 11 mRNA [1]): 73%
- IC50 (human Factor 11 mRNA [1]): 23 nM

Substance: 413482 (antisense GGACGGCATTGGTGCACAGT; 5-10-5 MOE gapmer, further chemistry not given here) [compound 413482]
- percent inhibition of Factor 11 at 9.375 nM (human Factor 11 mRNA [1]): 26%
- percent inhibition of Factor 11 at 18.75 nM (human Factor 11 mRNA [1]): 39%
- percent inhibition of Factor 11 at 37.5 nM (human Factor 11 mRNA [1]): 59%
- percent inhibition of Factor 11 at 75 nM (human Factor 11 mRNA [1]): 74%
- percent inhibition of Factor 11 at 150 nM (human Factor 11 mRNA [1]): 82%
- IC50 (human Factor 11 mRNA [1]): 28 nM

Substance: 416850 (antisense TGCACAGTTTCTGGCAGGCC; 5-10-5 gapmer, further chemistry not given here) [compound 416850]
- Percent inhibition of Factor 11 mRNA at 375 nM (human Factor 11 mRNA [2]): 40%
- Percent inhibition of Factor 11 mRNA at 750 nM (human Factor 11 mRNA [2]): 59%
- Percent inhibition of Factor 11 mRNA at 1,500 nM (human Factor 11 mRNA [2]): 69%
- Percent inhibition of Factor 11 mRNA at 3,000 nM (human Factor 11 mRNA [2]): 87%
- Percent inhibition of Factor 11 mRNA at 6,000 nM (human Factor 11 mRNA [2]): 90%
- Percent inhibition of Factor 11 mRNA at 12,000 nM (human Factor 11 mRNA [2]): 95%
- IC50 (human Factor 11 mRNA [2]): 560 nM

Substance: 416858 (antisense ACGGCATTGGTGCACAGTTT; 5-10-5 gapmer, further chemistry not given here) [compound 416858]
- Percent inhibition of Factor 11 mRNA at 375 nM (human Factor 11 mRNA [2]): 31%
- Percent inhibition of Factor 11 mRNA at 750 nM (human Factor 11 mRNA [2]): 35%
- Percent inhibition of Factor 11 mRNA at 1,500 nM (human Factor 11 mRNA [2]): 78%
- Percent inhibition of Factor 11 mRNA at 3,000 nM (human Factor 11 mRNA [2]): 85%
- Percent inhibition of Factor 11 mRNA at 6,000 nM (human Factor 11 mRNA [2]): 90%
- Percent inhibition of Factor 11 mRNA at 12,000 nM (human Factor 11 mRNA [2]): 93%
- IC50 (human Factor 11 mRNA [2]): 830 nM

Substance: 445522 (antisense eG*e[5mC]*eA*e[5mC]*eA*dG*dT*dT*dT*d[5mC]*dT*dG*dG*e[5mC]*eA*eG*eG*e[5mC]) [compound 445522]
- Percent inhibition of Factor 11 mRNA at 375 nM (human Factor 11 mRNA [2]): 59%
- Percent inhibition of Factor 11 mRNA at 750 nM (human Factor 11 mRNA [2]): 71%
- Percent inhibition of Factor 11 mRNA at 1,500 nM (human Factor 11 mRNA [2]): 83%
- Percent inhibition of Factor 11 mRNA at 3,000 nM (human Factor 11 mRNA [2]): 82%
- Percent inhibition of Factor 11 mRNA at 6,000 nM (human Factor 11 mRNA [2]): 81%
- Percent inhibition of Factor 11 mRNA at 12,000 nM (human Factor 11 mRNA [2]): 92%

Substance: 445531 (antisense eG*eG*e[5mC]*eA*eT*dT*dG*dG*dT*dG*d[5mC]*dA*d[5mC]*eA*eG*eT*eT*eT) [compound 445531]
- Percent inhibition of Factor 11 mRNA at 375 nM (human Factor 11 mRNA [2]): 44%
- Percent inhibition of Factor 11 mRNA at 750 nM (human Factor 11 mRNA [2]): 64%
- Percent inhibition of Factor 11 mRNA at 1,500 nM (human Factor 11 mRNA [2]): 78%
- Percent inhibition of Factor 11 mRNA at 3,000 nM (human Factor 11 mRNA [2]): 86%
- Percent inhibition of Factor 11 mRNA at 6,000 nM (human Factor 11 mRNA [2]): 91%
- Percent inhibition of Factor 11 mRNA at 12,000 nM (human Factor 11 mRNA [2]): 93%
- IC50 (human Factor 11 mRNA [2]): 440 nM

Substance: ISIS 416838: MOE gapmer, nucleobases 1018 to 1042 of SEQ ID NO: 1 (Table 6) (antisense GCAACCGGGATGATGAGTGC; MOE gapmer, wing and gap sizes not given here)
- ALT ([3]; 2 weeks): 61 IU/L
- AST ([3]; 2 weeks): 106 IU/L
- Albumin ([3]; 2 weeks): 3.5
- Bilirubin ([3]; 2 weeks): 0.57 mg/dL
- ALT ([3]; 4 weeks): 41 IU/L
- AST ([3]; 4 weeks): 73 IU/L
- Albumin ([3]; 4 weeks): 3.8
- Bilirubin ([3]; 4 weeks): 0.24 mg/dL
- ALT ([3]; 6 weeks): 141 IU/L
- AST ([3]; 6 weeks): 107 IU/L
- Albumin ([3]; 6 weeks): 3.6
- Bilirubin ([3]; 6 weeks): 0.20 mg/dL
- Organ weights, Kidney [4, 7]: 12 g
- Organ weights, Liver [4, 7]: 63 g
- Organ weights, Spleen [4, 7]: 5 g
- body weights ([4]; day 1): 2720 g
- body weights ([4]; day 8): 2592 g
- body weights ([4]; day 15): 2642 g
- body weights ([4]; day 22): 2702 g
- body weights ([4]; day 29): 2689 g
- body weights ([4]; day 36): 2708 g
- body weights ([4]; day 43): 2700 g
- body weights ([4]; day 50): 2731 g
- body weights ([4]; day 57): 2737 g
- body weights ([4]; day 64): 2746 g
- body weights ([4]; day 71): 2869 g
- body weights ([4]; day 78): 2766 g
- BUN ([5]; 2 weeks): 25 mg/dL
- Creatinine ([5]; 2 weeks): 0.09 mg/dL
- BUN ([5]; 4 weeks): 38 mg/dL
- Creatinine ([5]; 4 weeks): 0.27 mg/dL
- BUN ([5]; 6 weeks): 30 mg/dL
- Creatinine ([5]; 6 weeks): 0.14 mg/dL
- ALT [6]: 5 IU/L
- AST [6]: 2 IU/L
- Albumin [6]: 2
- Bilirubin [6]: 4 mg/dL
